Experimental data taken from US5001255A, “Idene analogs of mevalonolactone and derivatives thereof” (Sandoz Pharm. Corp., priority 1988, dated 1991).

Legend:
HMG-CoA reductase = molecular target: T1, HMG-CoA reductase (Rattus norvegicus, UniProt P51639); experiment: Test A. In Vitro Microsomal Assay of HMG-CoA Reductase Inhibition; format: biochemical, rat (male Sprague-Dawley); details: rat liver microsomes; [14C]HMG-CoA substrate; test substance 0.0001-2,000 μmolar; read-out: IC50 (concentration producing a 50% inhibition of HMG-CoA reductase activity)
T1 sequence (P51639 1-887): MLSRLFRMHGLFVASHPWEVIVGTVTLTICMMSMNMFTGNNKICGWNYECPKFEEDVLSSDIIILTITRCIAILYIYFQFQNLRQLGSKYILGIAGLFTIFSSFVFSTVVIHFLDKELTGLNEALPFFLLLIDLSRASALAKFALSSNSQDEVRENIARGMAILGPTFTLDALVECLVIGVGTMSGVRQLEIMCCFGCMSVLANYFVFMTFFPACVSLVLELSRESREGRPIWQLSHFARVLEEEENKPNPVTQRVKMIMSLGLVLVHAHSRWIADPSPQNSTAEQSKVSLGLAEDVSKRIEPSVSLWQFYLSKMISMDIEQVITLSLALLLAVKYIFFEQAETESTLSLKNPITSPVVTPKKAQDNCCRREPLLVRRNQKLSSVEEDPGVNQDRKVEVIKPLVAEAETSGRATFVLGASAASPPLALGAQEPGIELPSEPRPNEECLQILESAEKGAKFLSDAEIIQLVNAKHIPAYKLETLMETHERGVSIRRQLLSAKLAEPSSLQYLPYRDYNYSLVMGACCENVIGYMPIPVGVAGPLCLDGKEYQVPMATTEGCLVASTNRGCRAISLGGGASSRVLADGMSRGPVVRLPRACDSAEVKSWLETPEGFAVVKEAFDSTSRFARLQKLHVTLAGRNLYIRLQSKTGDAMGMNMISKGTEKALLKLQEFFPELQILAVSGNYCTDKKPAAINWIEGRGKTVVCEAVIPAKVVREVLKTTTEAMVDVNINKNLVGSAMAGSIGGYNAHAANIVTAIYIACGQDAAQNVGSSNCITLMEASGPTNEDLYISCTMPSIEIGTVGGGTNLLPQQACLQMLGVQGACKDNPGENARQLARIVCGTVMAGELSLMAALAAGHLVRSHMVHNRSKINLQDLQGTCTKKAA
Procedure: Test A. In Vitro Microsomal Assay of HMG-CoA Reductase Inhibition:
200 μl. aliquots (1.08-1.50 mg./ml.) of rat liver microsomal suspensions, freshly prepared from male Sprague-Dawley rats (150-225 g. body weight), in Buffer A with 10 mmol. dithiothreitol are incubated with 10 μl. of a solution of the test substance in dimethylacetamide and assayed for HMG-CoA reductase activity as described in Ackerman et al., J. Lipid Res. 18, 408-413 (1977), the concentration of the test substance in the assay system being 0.0001-2,000 μmolar. In the assay the microsomes are the source of the HMG-CoA reductase enzyme which catalyzes the reduction of HMG-CoA to mevalonate. The assay employs a chloroform extraction to separate the product, [^14 C]mevalonolactone, formed by the HMG-CoA reductase reduction of the substrate, [^14 C]HMG-CoA. [^3 H]mevalonolactone is added as an internal reference. Inhibition of HMG-CoA reductase is calculated from the decrease in specific activity ([^14 C/^3 H]mevalonate) of test groups compared to controls.
IC50 is the concentration of the test substance in the assay system calculated or observed to produce a 50% inhibition of HMG-CoA reductase activity.

[1] = tested on: 3β-hydroxysterol synthesis; experiment: Test B. In Vivo Cholesterol Biosynthesis Inhibition Test; parameters: species or system rat (male Wistar Royal Hart); details: Rattus norvegicus; rats, oral, 0.5% carboxymethylcellulose; i.p. sodium [1-14C]acetate one hour later; serum two hours after mid-dark; read-out: ED50 (dose producing a 50% inhibition of 3β-hydroxysterol synthesis)
Procedure: Test B. In Vivo Cholesterol Biosynthesis Inhibition Test:
In vivo studies utilize male Wistar Royal Hart rats weighing 150±20 g. which have been kept for 7-10 days on an
altered light cycle (6:30 A.M.-6:30 P.M. dark) housed two per cage and fed powdered Purina Rat Chow and water ad libitum. Three hours before the diurnal maximum of cholesterol synthesis at mid-dark, the rats are orally administered the test substance (e.g., 0.01-200 mg./kg. body weight) dissolved or as a suspension in 0.5% carboxymethylcellulose in a volume of 1 ml./100 g. body weight. Controls receive vehicle alone. One hour after receiving the test substance (or the vehicle alone), the rats are injected intraperitoneally with about 25 μCi/100 g. body weight of sodium [1-^14 C]acetate 1-3 mCi/mmol. Two hours after mid-dark, blood samples are obtained under sodium hexobarbitol anesthesia, and the serum is separated by centrifugation.
The [^14 C]digitonides are then counted by liquid scintillation spectrometry. After correcting for efficiencies, the results are calculated in nCi (nanocuries) of 3β-hydroxysterol formed per 100 ml. of serum. Inhibition of 3β-hydroxysterol synthesis is calculated from the reduction in the nCi of 3β-hydroxysterols formed from test qroups compared to controls.
ED50 is the dose of the test substance calculated or observed to produce a 50% inhibition of 3β-hydroxysterol synthesis.

Structure (SMILES)	IC50 (HMG-CoA reductase) [nM]	ED50 [1] [mg/kg]
Cc1cc(C)cc(C2=C(/C=C/[C@H]3C[C@@H](O)CC(=O)O3)C3(CCCC3)c3ccccc32)c1 (relative stereo) [Example 7]	150	
CC[C@H](C)C(=O)O[C@H]1CCC=C2C=C[C@H](C)[C@H](CC[C@@H]3C[C@@H](O)CC(=O)O3)[C@H]21 [Compactin, reference compound]		3.5
CCC1(CC)C(/C=C/C(O)CC(O)CC(=O)O)=C(c2ccc(F)cc2)c2ccccc21 (centres unmarked) [Example 17]	4700	
CC(C)C1C(/C=C/[C@@H]2C[C@@H](O)CC(=O)O2)=C(c2ccc(F)cc2)c2ccccc21 (some centres unmarked) [Example 20]	530	

Further lines, with some results ahead:

IC50 (HMG-CoA reductase) [nM]	Structure (SMILES)	ED50 [1] [mg/kg]
3	O=C(O)C[C@H](O)C[C@H](O)/C=C/C1=C(c2ccc(F)cc2)c2ccccc2C12CCCC2	
5	O=C(O)C[C@H](O)C[C@H](O)/C=C/C1=C(c2ccc(F)cc2)c2ccccc2C12CCCC2 (relative stereo) [Example 2, Sodium erythro-(E)-3,5-dihydroxy-7-[3'-(4"-fluorophenyl)spiro[cyclopentane-1,1'(1H)-inden]-2'-yl]hept-6-enoate]	0.07
7	Cc1cc(C)cc(C2=C(/C=C/[C@@H](O)C[C@@H](O)CC(=O)O)C3(CCCC3)c3ccccc32)c1 (relative stereo) [Example 8, Sodium erythro-(E)-3,5-dihydroxy-7-[3'-(3",5"-dimethylphenyl)spiro[cyclopentane-1,1'(1H)-inden]-2'-yl]hept-6-enoate]	0.31
19	CCOC(=O)CC(O)CC(O)/C=C/C1=C(c2ccc(F)cc2)c2ccccc2C12CC2 (centres unmarked) [Example 24]	0.71
